These are literature values, as cited in patent publication US20190209502A1, “COMBINATION GEL FOR SEXUALLY TRANSMITTED INFECTIONS” (EVOFEM, INC., priority 2016, published 2019).

For this data set, the system named is HIV. Conditions: compared with D or racemic lactic acid.

`C[C@H](O)C(=O)O` [L form of lactic acid, L-(+)-lactic acid]: the “potency in inactivating HIV” value is given as “more potent in inactivating HIV than D or racemic lactic acid”.
